Results as given in ChEMBL document CHEMBL1933046, “Synthesis and antibacterial activity of a novel series of acylides active against community acquired respiratory pathogens” (2012).
≈ marks a conversion by molar mass, not a printed value.

Legend:
Format in all cases: functional
Streptococcus pneumoniae [1] = experiment: Antibacterial activity against Streptococcus pneumoniae 49619 by NCCLS method
Streptococcus pneumoniae [2] = experiment: Antibacterial activity against Streptococcus pneumoniae 994 expressing mef gene by NCCLS method
Moraxella catarrhalis = experiment: Antibacterial activity against Moraxella catarrhalis 8176 by NCCLS method
Streptococcus pyogenes = experiment: Antibacterial activity against Streptococcus pyogenes 19615 by NCCLS method
Streptococcus pneumoniae [3] = experiment: Antibacterial activity against Streptococcus pneumoniae 3579 expressing erm gene by NCCLS method
Streptococcus pneumoniae [4] = experiment: Antibacterial activity against Streptococcus pneumoniae 6303 by NCCLS method
Haemophilus influenzae = experiment: Antibacterial activity against Haemophilus influenzae 38 by NCCLS method
Streptococcus pneumoniae [5] = experiment: Antibacterial activity against Streptococcus pneumoniae by NCCLS method

| MIC (Streptococcus pneumoniae [1]) [µg/mL] | MIC (Streptococcus pneumoniae [2]) [µg/mL] | MIC (Moraxella catarrhalis) [µg/mL] | MIC (Streptococcus pyogenes) [µg/mL] | MIC (Streptococcus pneumoniae [3]) [µg/mL] | MIC (Streptococcus pneumoniae [4]) [µg/mL] | MIC (Haemophilus influenzae) [µg/mL] | MIC (Streptococcus pneumoniae [5]) [µg/mL] | Compound |
| --- | --- | --- | --- | --- | --- | --- | --- | --- |
| 0.015 (≈ 0.0197 µM) | 0.125 (≈ 0.164 µM) | 1 (≈ 1.32 µM) | 0.015 (≈ 0.0197 µM) | 8 (≈ 10.5 µM) | 0.125 (≈ 0.164 µM) | – | – | C=CCN(C)[C@H]1C[C@@H](C)O[C@@H](O[C@@H]2[C@@H](C)[C@H](OC(=O)Cc3ccccn3)[C@@H](C)C(=O)O[C@H](CC)[C@@]3(C)OC(=O)N[C@@H]3[C@@H](C)C(=O)[C@H](C)C[C@@]2(C)OC)[C@@H]1O |
| 0.03 (≈ 0.0317 µM) | 0.125 (≈ 0.132 µM) | 0.125 (≈ 0.132 µM) | 0.03 (≈ 0.0317 µM) | 2 (≈ 2.11 µM) | 0.06 (≈ 0.0633 µM) | 1 (≈ 1.06 µM) | – | CC[C@H]1OC(=O)[C@H](C)[C@@H](OC(=O)Cc2cccnc2)[C@H](C)[C@@H](O[C@@H]2O[C@H](C)C[C@H](N(C)CC)[C@H]2O)[C@](C)(OC)C[C@@H](C)C(=O)[C@H](C)[C@H]2N(CCCCn3cnc(-c4cccnc4)c3)C(=O)O[C@]12C |
| 0.03 (≈ 0.0313 µM) | 0.125 (≈ 0.13 µM) | 0.25 (≈ 0.261 µM) | 0.06 (≈ 0.0626 µM) | 1 (≈ 1.04 µM) | 0.03 (≈ 0.0313 µM) | 0.125 (≈ 0.13 µM) | – | C=CCN(C)[C@H]1C[C@@H](C)O[C@@H](O[C@@H]2[C@@H](C)[C@H](OC(=O)Cc3cccnc3)[C@@H](C)C(=O)O[C@H](CC)[C@@]3(C)OC(=O)N(CCCCn4cnc(-c5cccnc5)c4)[C@@H]3[C@@H](C)C(=O)[C@H](C)C[C@@]2(C)OC)[C@@H]1O |
| 0.03 (≈ 0.0313 µM) | 0.25 (≈ 0.261 µM) | 0.25 (≈ 0.261 µM) | 0.03 (≈ 0.0313 µM) | 0.5 (≈ 0.522 µM) | 0.06 (≈ 0.0626 µM) | < 0.06 | – | C=CCN(C)[C@H]1C[C@@H](C)O[C@@H](O[C@@H]2[C@@H](C)[C@H](OC(=O)Cc3ccccn3)[C@@H](C)C(=O)O[C@H](CC)[C@@]3(C)OC(=O)N(CCCCn4cnc(-c5ccccc5)c4)[C@@H]3[C@@H](C)C(=O)[C@H](C)C[C@@]2(C)OC)[C@@H]1O |
| 0.06 (≈ 0.0643 µM) | 0.5 (≈ 0.536 µM) | 0.125 (≈ 0.134 µM) | 0.125 (≈ 0.134 µM) | 0.5 (≈ 0.536 µM) | 0.125 (≈ 0.134 µM) | < 0.06 | – | C=CCN(C)[C@H]1C[C@@H](C)O[C@@H](O[C@@H]2[C@@H](C)[C@H](OC(=O)Cc3ccccn3)[C@@H](C)C(=O)O[C@H](CC)[C@@]3(C)OC(=O)N(CCCCn4cnc5cccnc54)[C@@H]3[C@@H](C)C(=O)[C@H](C)C[C@@]2(C)OC)[C@@H]1O |
| 0.008 (≈ 0.00834 µM) | 0.125 (≈ 0.13 µM) | 0.125 (≈ 0.13 µM) | 0.008 (≈ 0.00834 µM) | 0.25 (≈ 0.261 µM) | 0.015 (≈ 0.0156 µM) | 0.125 (≈ 0.13 µM) | – | C=CCN(C)[C@H]1C[C@@H](C)O[C@@H](O[C@@H]2[C@@H](C)[C@H](OC(=O)Cc3ccccn3)[C@@H](C)C(=O)O[C@H](CC)[C@@]3(C)OC(=O)N(CCCCn4cnc(-c5cccnc5)c4)[C@@H]3[C@@H](C)C(=O)[C@H](C)C[C@@]2(C)OC)[C@@H]1O |
| 0.03 (≈ 0.0321 µM) | 0.25 (≈ 0.268 µM) | 0.06 (≈ 0.0643 µM) | 0.03 (≈ 0.0321 µM) | 0.25 (≈ 0.268 µM) | 0.06 (≈ 0.0643 µM) | < 0.06 | – | C=CCN(C)[C@H]1C[C@@H](C)O[C@@H](O[C@@H]2[C@@H](C)[C@H](OC(=O)Cc3ccccn3)[C@@H](C)C(=O)O[C@H](CC)[C@@]3(C)OC(=O)N(CCCCn4cnc5cnccc54)[C@@H]3[C@@H](C)C(=O)[C@H](C)C[C@@]2(C)OC)[C@@H]1O |
| 0.03 (≈ 0.0308 µM) | 0.06 (≈ 0.0615 µM) | 0.125 (≈ 0.128 µM) | 2 (≈ 2.05 µM) | 0.125 (≈ 0.128 µM) | 0.03 (≈ 0.0308 µM) | – | – | C=CCN(C)[C@H]1C[C@@H](C)O[C@@H](O[C@@H]2[C@@H](C)[C@H](OC(=O)Cc3ccccn3)[C@@H](C)C(=O)O[C@H](CC)[C@@]3(C)OC(=O)N(CCCCn4cnc(-c5cnc(N)nc5)c4)[C@@H]3[C@@H](C)C(=O)[C@H](C)C[C@@]2(C)OC)[C@@H]1O |
| – | – | – | – | – | – | – | 0.5 (≈ 0.68 µM) | C=CCN(C)[C@H]1C[C@@H](C)O[C@@H](O[C@@H]2[C@@H](C)[C@H](OC(=O)Cc3ccncc3)[C@@H](C)C(=O)O[C@H](CC)[C@@](C)(O)[C@H](O)[C@@H](C)C(=O)[C@H](C)C[C@@]2(C)OC)[C@@H]1O |
